Measured values: patent US10301298B2, “Methods, compounds, and compositions for the treatment of angiotensin-related diseases” (University of Southern California, priority 2013, dated 2019)
Entries after “also recorded” stand apart in the source; their conditions may differ.

Key:
Mas [1] = target: T1, Mas (Homo sapiens, UniProt P04201); test: Competition binding assay, displacement of fluorescent Ang(1-7) from Mas-transfected CHO cells; parameters: concentration or dose not given beside the values; settings: CHO cells transfected with Human mas1, on ice
T1 construct: expressed in transfected cells
T1 sequence (P04201 1-325): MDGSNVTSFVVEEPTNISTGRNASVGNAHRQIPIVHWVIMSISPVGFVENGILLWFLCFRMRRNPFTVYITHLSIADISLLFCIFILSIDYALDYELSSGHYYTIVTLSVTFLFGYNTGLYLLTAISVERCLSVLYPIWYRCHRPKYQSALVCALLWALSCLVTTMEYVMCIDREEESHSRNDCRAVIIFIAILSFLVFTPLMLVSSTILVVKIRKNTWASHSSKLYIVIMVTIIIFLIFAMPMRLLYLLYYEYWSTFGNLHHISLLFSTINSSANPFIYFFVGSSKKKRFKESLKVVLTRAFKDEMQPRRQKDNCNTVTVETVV
Method: CHO cells stably transfected with recombinant Human mas1 proto-oncogen driven by the human cytomegalovirus were grown to 80% confluency. The cells were detached with trypsin and harvested by centrifugation. Cells were washed three times in progressively colder buffers. The final number of cells per assay was 5×10^5. All subsequent steps were performed on ice. Test compound was added to the cells for 10 minutes prior to addition of fluorescently labeled A(1-7). After 10 minutes further incubation, the cells were washed to remove unbound A(1-7) and the fluorescence bound was read at an excitation of 490 nm and an emission of 520 nm.

Mas [2] = target: T1, Mas; test: NO production in CHO cells stably transfected with Human Mas1; format: cell-based
Method: Transfected cells that express Mas were used to identify and evaluate provided compounds as Mas agonists, by promoting NO production as readouts. CHO cells stably transfected with pTEJ-8 vector containing recombinant Human Mas1 clone were grown to confluency. Cells were washed three times for 30/5/5 minutes with prewarmed (37° C.) Tyrodes Salts (supplemented with 1 g/L NaHCO3, and 1.9 g/L d-Glucose). Cells were incubated for a short time in 700 μL of supplemented Tyrodes salts containing 10 μM PTIO, 100 μM DAN, and 1 mM L-arginine. When using antagonist for competition assays, cells were exposed to the inhibitor at 1×10^−7 M for 15 minutes, before additional drugs are added.
Chemicals (10^−8 to 10^−6 M or the maximum concentration found not to cause cytotoxicity) to be screened were added to the cell medium and the plates were agitated for 1 minute before being placed into the incubator for 2 hours. After 2 hours, cellular supernatants were transferred to opaque 96 well plates, and the fluorescence intensity was recorded at an ex/em of 380/425.

db/db mice = test: Bone marrow cell counts and progenitor colonies in db/db mice; format: in vivo; settings: 500 mcg/kg/day subcutaneously, 14 days
Method: The femurs and tibia were collected from db/db mice treated 500 mcg/kg/day Ang(1-7) or Compound 7 subcutaneously for 14 days were euphanized and the bone marrow were collected by flushing with PBS containing 2% fetal calf serum. After collection of the bone marrow, the red blood cells will be lysed with a hypotonic solution (described above), mixed with 0.04% trypan blue and the number of nucleated cells was assessed by hematocytometer under light microscopy. Aliquots of cells were then resuspended at 1×10^6 cells/ml (GM and GEMM, bone marrow), 1.5×10^6 cells/ml (BFU-E, bone marrow). One hundred μ1 of each suspension was added to 900 μl of semisolid medium containing 0.9% methyl cellulose in Iscove's MDM, 15% fetal calf serum, 1% bovine serum albumin, 10 μg/ml bovine pancreatic insulin, 200 μg/ml human transferrin, 10^−4 M 2-mercaptoethanol, 2 mM glutamine, 10 ng/ml recombinant murine interleukin 3, 10 ng/ml recombinant human interleukin 6, 50 ng/ml recombinant murine stem cell factor and 3 units/ml erthropoietin. This mixture was then added to duplicate wells of a 24 well plate. The cultures were then placed at 37° C. in a humidified atmosphere of 5% CO2 in air. At day 14, the number of progenitor colonies formed was enumerated under phase contrast microscopy.
The bone marrow cells were also cultured to assess the number of MSCs by a CFU—F assay. 2.5×10^5 cells/ml, 2 ml per well, were diluted into Mesencult medium (Stem Cell Technologies, Vancouver, BC, Canada) and 2 mL were placed in each well of a 24 well plate. The cultures were then incubated at 37° C. in a humidified atmosphere of 5% CO2 in air. At days 2, 5 and 8, the number of progenitor colonies formed was enumerated under phase contrast microscopy.

Molecule	% Displacement (Mas [1]) [%]	ability to enhance NO production (fluorescence) (Mas [2]; Mas-transfected CHO cells)	NO production with co-administration of A779 (Mas [2]; with A779, selective Mas antagonist, 1×10^−7 M)	bone marrow counts (db/db mice)
CCCCOC(=O)NS(=O)(=O)c1ccc(OC(F)(F)F)cc1-c1ccc(CN2CCN(C)C2=O)cn1 [Compound 8, butyl (2-(5-((3-methyl-2-oxoimidazolidin-1-yl)methyl)pyridin-2-yl)-4-(trifluoromethoxy)phenyl) sulfonylcarbamate]	18.6			
CCCCOC(=O)NS(=O)(=O)c1ccc(OC(F)(F)F)cc1-c1ccc(CN2CCOCC2)cn1 [Compound 9, butyl (2-(5-(morpholinomethyl)pyridin-2-yl)-4-(trifluoromethoxy)phenyl)sulfonyl-carbamate]	17.3			
CCCCOC(=O)NS(=O)(=O)c1ccc(OC(F)(F)F)cc1-c1ccc(CN2CCN(C)CC2)cn1 [Compound 10, butyl (2-(5-((4-methylpiperazin-1-yl)methyl)pyridin-2-yl)-4-(trifluoromethoxy)phenyl)sulfonylcarbamate]	22.0			
CCCCOC(=O)NS(=O)(=O)c1ccc(OC(F)(F)F)cc1-c1ncc(Cn2ccnc2)s1 [Compound 11, butyl (2-(5-((1H-imidazol-1-yl)methyl)thiazol-2-yl)-4-(trifluoromethoxy)phenyl)sulfonylcarbamate]	23.0			
Asp-Arg-Val-Tyr-Ile-His-Pro [Ang(1-7), reference compound]		concentration dependent increase in NO	back to baseline fluorescence	increase bone marrow counts; also recorded: increased the bone marrow counts
